Source: PubChem BioAssay (NCI)
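Grown in 96-well plates, cells were treated for 48 hours with each compound at five concentrations. Insufficient inhibition: endpoint recorded as highest concentration tested. The concentration for full growth arrest is given as TGI.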

Legend:
Experiment in all cases: DTP human tumour cell line panel, 48 h
[1] = test system: 786-0 renal
[2] = test system: BT-549 breast
[3] = test system: RXF 393 renal
[4] = test system: NCI-H23 lung
[5] = test system: M14 melanoma
[6] = test system: MOLT-4 leukemia
[7] = test system: U251 CNS
[8] = test system: UO-31 renal
[9] = test system: HOP-62 NSCLC
[10] = test system: ACHN renal
[11] = test system: CCRF-CEM leukemia
[12] = test system: SNB-75 CNS
[13] = test system: COLO 205 colon
[14] = test system: SK-OV-3 ovarian
[15] = test system: HCT-116 colon
[16] = test system: LOX IMVI melanoma
[17] = test system: MALME-3M melanoma
[18] = test system: OVCAR-3 ovarian
[19] = test system: SF-295 CNS
[20] = test system: SNB-19 CNS
[21] = test system: SK-MEL-2 melanoma
[22] = test system: A549 NSCLC
[23] = test system: SK-MEL-5 melanoma
[24] = test system: K-562 leukemia
[25] = test system: MCF7 breast
[26] = test system: HCT-15 colon
[27] = test system: SN12C renal
[28] = test system: MDA-N
[29] = test system: SF-268 CNS
[30] = test system: PC-3 prostate
[31] = test system: SF-539 CNS
[32] = test system: HL-60(TB) leukemia
[33] = test system: NCI/ADR-RES ovarian
[34] = test system: OVCAR-8 ovarian
[35] = test system: HS 578T breast
[36] = test system: HT29 colon
[37] = test system: SR leukemia
[38] = test system: SW-620 colon
[39] = test system: MDA-MB-435
[40] = test system: T-47D breast
[41] = test system: OVCAR-4 ovarian
[42] = test system: RPMI-8226 leukemia
[43] = test system: A498 renal
[44] = test system: NCI-H522 lung
[45] = test system: TK-10 renal
[46] = test system: EKVX NSCLC
[47] = test system: NCI-H226 lung
[48] = test system: HOP-92 NSCLC
[49] = test system: IGROV1 ovarian
[50] = test system: CAKI-1 renal
[51] = test system: OVCAR-5 ovarian
[52] = test system: UACC-257 melanoma
[53] = test system: SK-MEL-28 melanoma
[54] = test system: MDA-MB-231 breast
[55] = test system: NCI-H460 lung
[56] = test system: UACC-62 melanoma
[57] = test system: HCC-2998 colon
[58] = test system: KM12 colon
[59] = test system: DU-145 prostate

SMILES: C=CCc1c(C)nc(C)nc1N/N=C/C=C/c1ccccc1
- TGI [1]: > 100 µM
- TGI [2]: 63.2 µM
- TGI [3]: 47 µM
- TGI [4]: 94 µM
- TGI [5]: > 100 µM
- TGI [6]: 54 µM
- TGI [7]: 61.3 µM
- TGI [8]: > 100 µM
- TGI [9]: 38.8 µM
- TGI [10]: > 100 µM
- TGI [11]: > 100 µM
- TGI [12]: 91.6 µM
- TGI [13]: > 100 µM
- TGI [14]: > 100 µM
- TGI [15]: > 100 µM
- TGI [16]: > 100 µM
- TGI [17]: > 100 µM
- TGI [18]: 53.3 µM
- TGI [19]: 52.9 µM
- TGI [20]: > 100 µM
- TGI [21]: > 100 µM
- TGI [22]: > 100 µM
- TGI [23]: 84.2 µM
- TGI [24]: 87.4 µM
- TGI [25]: 65.3 µM
- TGI [26]: > 100 µM
- TGI [27]: > 100 µM
- TGI [28]: > 100 µM
- TGI [29]: > 100 µM
- TGI [30]: > 100 µM
- TGI [31]: > 100 µM
- TGI [32]: 81.2 µM
- TGI [33]: 64.8 µM
- TGI [34]: 97.7 µM
- TGI [35]: > 100 µM
- TGI [36]: > 100 µM
- TGI [37]: 57.3 µM
- TGI [38]: > 100 µM
- TGI [39]: > 100 µM
- TGI [40]: 28 µM
- TGI [41]: 0.18 µM
- TGI [42]: 74.9 µM
- TGI [43]: 65.2 µM
- TGI [44]: > 100 µM
- TGI [45]: 99.9 µM
- TGI [46]: 69.2 µM
- TGI [47]: > 100 µM
- TGI [48]: 99.5 µM
- TGI [49]: > 100 µM
- TGI [50]: > 100 µM
- TGI [51]: > 100 µM
- TGI [52]: 48.9 µM
- TGI [53]: > 100 µM
- TGI [54]: > 100 µM
- TGI [55]: 57.5 µM
- TGI [56]: 53.4 µM

SMILES: COc1ccc(N=Nc2c(C)c(C#N)c(=S)n(C3OC(COC(C)=O)C(OC(C)=O)C(OC(C)=O)C3OC(C)=O)c2C)cc1 (configuration not stated)
- TGI [1]: 53 µM
- TGI [2]: > 100 µM
- TGI [3]: > 100 µM
- TGI [4]: > 100 µM
- TGI [5]: > 100 µM
- TGI [6]: > 100 µM
- TGI [8]: > 100 µM
- TGI [9]: > 100 µM
- TGI [10]: > 100 µM
- TGI [11]: > 100 µM
- TGI [12]: 42.6 µM
- TGI [13]: > 100 µM
- TGI [14]: > 100 µM
- TGI [15]: > 100 µM
- TGI [16]: > 100 µM
- TGI [17]: > 100 µM
- TGI [18]: > 100 µM
- TGI [19]: > 100 µM
- TGI [20]: > 100 µM
- TGI [22]: > 100 µM
- TGI [23]: > 100 µM
- TGI [24]: > 100 µM
- TGI [25]: > 100 µM
- TGI [27]: > 100 µM
- TGI [28]: > 100 µM
- TGI [29]: > 100 µM
- TGI [30]: > 100 µM
- TGI [31]: > 100 µM
- TGI [32]: > 100 µM
- TGI [33]: > 100 µM
- TGI [35]: 82 µM
- TGI [36]: > 100 µM
- TGI [37]: > 100 µM
- TGI [57]: > 100 µM
- TGI [38]: > 100 µM
- TGI [58]: > 100 µM
- TGI [59]: > 100 µM
- TGI [40]: > 100 µM
- TGI [41]: > 100 µM
- TGI [42]: > 100 µM
- TGI [45]: > 100 µM
- TGI [48]: 63.5 µM
- TGI [49]: > 100 µM
- TGI [50]: > 100 µM
- TGI [51]: > 100 µM
- TGI [52]: > 100 µM
- TGI [53]: > 100 µM
- TGI [54]: 71 µM
- TGI [55]: > 100 µM
- TGI [56]: > 100 µM

SMILES: C=C[C@]1(O)CCC[C@]2(C)C(=O)CCC12C (some centres not stated)
- TGI [1]: > 100 µM
- TGI [3]: > 100 µM
- TGI [4]: > 100 µM
- TGI [5]: > 100 µM
- TGI [6]: > 100 µM
- TGI [7]: > 100 µM
- TGI [8]: > 100 µM
- TGI [9]: > 100 µM
- TGI [10]: > 100 µM
- TGI [13]: > 100 µM
- TGI [14]: > 100 µM
- TGI [15]: > 100 µM
- TGI [16]: > 100 µM
- TGI [17]: > 100 µM
- TGI [18]: > 100 µM
- TGI [19]: > 100 µM
- TGI [20]: > 100 µM
- TGI [21]: > 100 µM
- TGI [22]: > 100 µM
- TGI [23]: > 100 µM
- TGI [24]: > 100 µM
- TGI [25]: > 100 µM
- TGI [26]: > 100 µM
- TGI [27]: > 100 µM
- TGI [28]: > 100 µM
- TGI [29]: > 100 µM
- TGI [30]: > 100 µM
- TGI [31]: > 100 µM
- TGI [32]: > 100 µM
- TGI [33]: > 100 µM
- TGI [34]: > 100 µM
- TGI [35]: > 100 µM
- TGI [36]: > 100 µM
- TGI [37]: > 100 µM
- TGI [57]: > 100 µM
- TGI [38]: > 100 µM
- TGI [58]: > 100 µM
- TGI [39]: > 100 µM
- TGI [59]: > 100 µM
- TGI [40]: > 100 µM
- TGI [41]: > 100 µM
- TGI [42]: > 100 µM
- TGI [43]: > 100 µM
- TGI [44]: > 100 µM
- TGI [46]: > 100 µM
- TGI [47]: > 100 µM
- TGI [48]: > 100 µM
- TGI [49]: > 100 µM
- TGI [51]: > 100 µM
- TGI [52]: > 100 µM
- TGI [53]: > 100 µM
- TGI [54]: > 100 µM
- TGI [55]: > 100 µM
- TGI [56]: > 100 µM

SMILES: Cn1c2c(c3ccccc31)CCN1OCC=C[C@@H](C(=O)O)[C@@H]21
- TGI [1]: > 100 µM
- TGI [3]: > 100 µM
- TGI [5]: > 100 µM
- TGI [7]: > 100 µM
- TGI [8]: > 100 µM
- TGI [9]: > 100 µM
- TGI [10]: > 100 µM
- TGI [12]: > 100 µM
- TGI [13]: > 100 µM
- TGI [14]: > 100 µM
- TGI [15]: > 100 µM
- TGI [16]: > 100 µM
- TGI [17]: > 100 µM
- TGI [18]: > 100 µM
- TGI [20]: > 100 µM
- TGI [21]: > 100 µM
- TGI [22]: > 100 µM
- TGI [23]: > 100 µM
- TGI [25]: > 100 µM
- TGI [26]: > 100 µM
- TGI [27]: > 100 µM
- TGI [28]: > 100 µM
- TGI [29]: > 100 µM
- TGI [30]: > 100 µM
- TGI [31]: > 100 µM
- TGI [32]: > 100 µM
- TGI [33]: > 100 µM
- TGI [34]: > 100 µM
- TGI [35]: > 100 µM
- TGI [36]: > 100 µM
- TGI [37]: > 100 µM
- TGI [57]: > 100 µM
- TGI [38]: > 100 µM
- TGI [58]: > 100 µM
- TGI [39]: > 100 µM
- TGI [59]: > 100 µM
- TGI [40]: > 100 µM
- TGI [41]: > 100 µM
- TGI [43]: > 100 µM
- TGI [44]: > 100 µM
- TGI [45]: > 100 µM
- TGI [46]: > 100 µM
- TGI [47]: > 100 µM
- TGI [48]: > 100 µM
- TGI [49]: > 100 µM
- TGI [50]: > 100 µM
- TGI [51]: > 100 µM
- TGI [52]: > 100 µM
- TGI [53]: > 100 µM
- TGI [54]: > 100 µM
- TGI [55]: > 100 µM
- TGI [56]: > 100 µM
